Results reported in US10071042B2, “External dermatological agent for anti-ageing” (Hayashibara Co., Ltd., priority 2014, dated 2018).
Where two headings read alike, the source gives them in different places. Marks after values point to notes of the source that are not given here.

What was measured:
[1] = tested on: 3T3; test: TG432: In vitro 3T3 NRU Phototoxicity Test; type: cell-based
Description: Based on this, external dermal agent containing any of adenosine N1-oxide 5′-phosphate, analogues thereof, and their salts can be said to be safe.

[2] = tested on: elastin; test: Elastin production of normal human dermal fibroblasts, colorimetric kit (Experiment 4); type: cell-based; conditions: 2 days, control = 100%
Protocol: Normal human dermal fibroblasts (NHDF), which had been suspended in a Dulbecco's Modified Eagle Medium supplemented with 10% fetal calf serum to give a cell concentration of 3×10^5 cells/mL, were placed in 24-well plates by 0.5 mL/well and cultured for one day. The cultured cells were washed with Dulbecco's phosphate buffered saline and cultured for another two days in a Dulbecco's Modified Eagle Medium, supplemented with any one of the test substances in Table 5 at respective concentrations shown in the table, to induce elastin synthesis. Thereafter, each culture supernatant was collected, and the remaining cells were washed with one milliliter of Dulbecco's phosphate buffered saline, added with 0.1 mL of 0.25% trypsin and ethylenediaminetetraacetate, followed by incubation at 37° C. for two minutes to detach the cells from the plates. A half milliliter of Dulbecco's phosphate buffered saline was added to each plate, and the resulting cell suspensions were collected in a 1.5-mL tube which was then subjected to centrifugation (3,000×g for five minutes) to collect the cells. Elastin was quantified with a colorimetric determination kit commercialized by Biocolor Ltd., […]. The previously collected supernatant was used to suspend the collected cells, to which was then added 0.16 mL of 1 M oxalic acid, a reagent affixed to the kit, and incubated at 100° C. for one hour to solubilize elastin. To the solubilized elastin placed in a container was added 0.66 mL of an elastin precipitant as a reagent affixed to the kit, mixed for 15 min while repeatedly reversing the container, and centrifuged at 10,000×g for 10 min to precipitate proteins. A half milliliter of a dye, as a reagent affixed to the kit, was added to the resulting precipitate, followed by repeatedly reversing the container for 90 min and centrifuged at 10,000×g for 10 min to collect sediments bound with the dye. Thereafter, the collected sediments were added with 0.25 mL of a dye separator as a reagent affixed to the kit, and mixed for one hour while repeatedly reversing a container with the resulting mixture, followed by determining the absorbance of the resulting mixture at a wavelength of 490 nm and calculating the amount of elastin per well. A calibration curve was generated with an accessory for the kit. A control system was provided by similarly treating normal human dermal fibroblasts (NHDF) without adding any test substance and determined for its absorbance at a wavelength of 490 nm. Regarding the absorbance as 100%, the production level of elastin of each test substance was comparatively evaluated based on the following equation. Equation: Production level of elastin (relative value (%))=[(Absorbance of a sample with any one of test substances)/(Absorbance of control)]×100
(§1) The experiment was repeated three times, and the data was compared to that of control with the Dunnett's multiple comparisons test. The symbol “*” means a level of significance of p<0.01.

[3] = tested on: normal human dermal fibroblasts (NHDF); test: Number of cells, Alamar Blue (Experiment 4); type: cell-based; conditions: control = 100%
Protocol: To confirm cell proliferation under the above conditions tested, normal human dermal fibroblasts (NHDF), which had been suspended in a Dulbecco's Modified Eagle Medium supplemented with 10% fetal calf serum to give a cell concentration of 2.5×10^5 cells/mL, were placed in 96-well microplates by 0.1 mL/well and cultured for one day. The resulting cells were washed with Dulbecco's phosphate buffered saline and cultured for another two days in a Dulbecco's Modified Eagle Medium supplemented with any one of the test substances in Table 5. The culture supernatants were removed from the microplates, to which were then added 0.2 mL/well of a dilution of “Alamar Blue” diluted with the same culture medium as used in the above by 10 folds to react with the cells at 37° C. for two hours, followed by measuring the fluorescent intensity of the cells at an excitation wavelength of 544 nm and a fluorescent wavelength of 590 nm and obtaining the variation of the number of cells with the addition of any one of the test substances based on the fluorescent intensity of a control system, which had been treated similarly as in the above except for not adding any of the test substances, being regarded as 100%.
as §1

[4] = tested on: normal human epidermal keratinocytes; test: Number of cells, methylene blue (Experiment 6); type: cell-based; conditions: for Number of cells (%): control = 100%
Protocol: The number of proliferated cells was determined with methylene blue and regarded as 100% for use in calculating the variation of cells with any one of the test substances.

[5] = tested on: endothelin-1; test: Endothelin-1 production after ultraviolet B irradiation, ELISA (Experiment 6); type: cell-based, human; conditions: for Production level of endothelin-1 (%): ultraviolet B 40 mJ/cm^2, control = 100%
Protocol: Normal human epidermal keratinocytes were proliferated to a confluent state at which the cells were grown over the entire bottom edge of each well of 96-well microplates by using “EpiLife”, a product name of a culture medium containing a growth factor for keratinocytes, commercialized by Life Technologies Corporation, CA, USA, and further cultured for another two days while replacing the medium with a fresh culture medium free of such a growth factor. Thereafter, the resulting cultures were added with sodium adenosine N1-oxide 5′-phosphate to give a concentration of 10, 20, or 50 μM, and allowed to stand for six hours. The cultured cells were washed with Hanks buffer, irradiated with ultraviolet B radiation at an intensity of 40 mJ/cm^2, and further cultured for 24 hours after the addition of a culture medium containing the growth factor. Endothelin-1 in the resulting supernatants was detected with an endothelin-1 specific ELISA kit, commercialized by R&D Systems Inc., MN, USA, colored with tetramethylbenzidine, and measured for absorbance at a wavelength of 450 nm. A control system was provided and similarly treated as above except for not adding sodium adenosine N1-oxide 5′-phosphate and then determined for the production level of endothelin-1 in the resulting culture supernatant to be regarded as 100%. The production level of endothelin-1 for each test substance was comparatively evaluated based on the following equation. Equation: Production level of endothelin-1 (relative value (%))=[(Absorbance of a sample with a test substance)/(Absorbance of control)]×100 The experiment was repeated three times, and the data was compared to that of control with the Dunnett's multiple comparisons test. The symbol “*” means a level of significance of p<0.01.

Molecule: 3′-α-glucosyl adenosine N1-oxide [3′-α-Glucosyladenosine N1-oxide]
- optical toxicity [1]: no optical toxicity

Molecule: 5′-α-glucosyl adenosine N1-oxide [5′-α-Glucosyladenosine N1-oxide]
- optical toxicity [1]: no optical toxicity

Molecule: Nc1ncnc2c1ncn2[C@@H]1O[C@H](COP(=O)(O)O)[C@@H](O)[C@H]1O [Adenosine 5′-phosphate, reference compound]
- Production level of elastin (%) ([2]; 10 μM): 114.4%
- Production level of elastin (%) ([2]; 40 μM): 117.2%
- Production level of elastin (%) ([2]; 100 μM): 120.0* %
- Number of cells (%) ([3]; 10 μM): 101.0%
- Number of cells (%) ([3]; 40 μM): 102.0%
- Number of cells (%) ([3]; 100 μM): 99.0%

Molecule: Nc1c2ncn([C@@H]3O[C@H](CO)[C@@H](O)[C@H]3O)c2nc[n+]1[O-] [Adenosine N1-oxide, adenosine N1-oxide]
- Production level of elastin (%) ([2]; 1 μM): 108.8%
- Production level of elastin (%) ([2]; 4 μM): 114.8%
- Production level of elastin (%) ([2]; 10 μM): 118.4* %
- Production level of elastin (%) ([2]; 10 μM, listed as adenosine N1-oxide): about 120%
- Number of cells (%) ([3]; 1 μM): 99.0%
- Number of cells (%) ([3]; 4 μM): 98.0%
- Number of cells (%) ([3]; 10 μM): 94.0%
- optical toxicity [1]: no optical toxicity

Molecule: Nc1c2ncn([C@@H]3O[C@H](COP(=O)([O-])O)[C@@H](O)[C@H]3O)c2nc[n+]1[O-].[Na+] [Sodium adenosine N1-oxide 5′-phosphate, sodium adenosine N1-oxide 5′-phosphate]
- Number of cells (%) ([4]; 10 μM): 111.4%
- Number of cells (%) ([4]; 20 μM): 103.6%
- Number of cells (%) ([4]; 50 μM): 100.6%
- influence on cell proliferation ([4]; 10 to 50 μM): No influence on cell proliferation
- Production level of elastin (%) ([2]; 1 μM): 98.0%
- Production level of elastin (%) ([2]; 4 μM): 105.2%
- Production level of elastin (%) ([2]; 10 μM): 121.2* %
- Production level of elastin (%) ([2]; 10 μM, listed as sodium adenosine N1-oxide 5′-phosphate): about 120%
- Production level of endothelin-1 (%) ([5]; 10 μM): 104.5%
- Production level of endothelin-1 (%) ([5]; 20 μM): 87.9%
- production level of endothelin-1 reduced by ([5]; 50 μM, compared to control): about 50%
- Production level of endothelin-1 (%) ([5]; 50 μM): 49.9* %
- Number of cells (%) ([3]; 1 μM): 104.0%
- Number of cells (%) ([3]; 4 μM): 104.0%
- Number of cells (%) ([3]; 10 μM): 101.0%
- optical toxicity ([1]; OECD test guideline TG432): no optical toxicity
